Here are results for nine compounds from PubChem BioAssay (NCI).

Some test systems named below: OVCAR-4 ovarian; MOLT-4 leukemia; A498 renal; UO-31 renal; M14 melanoma; KM12 colon; MDA-MB-435; U251 CNS; TK-10 renal; NCI-H460 lung.
Common to all, as to assay: growth of human tumour cells (NCI), 48 h

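The compound was tested at five concentrations on cells cultured in 96-well plates, with a 48-hour exposure period. Abbreviation: GI50, concentration required for 50% inhibition of growth. The concentration for full growth arrest is given as TGI.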 Where only a bound is given, the exact number is not on record here.

In the case of `O=C(/C=C/C12c3ccccc3C(c3ccccc31)C1C(=O)NC(=O)C12)c1ccc(Cl)cc1` (stereo unspecified), the GI50 in the assay with OVCAR-4 ovarian is 1.42 µM; in the assay on MOLT-4 leukemia, 1.7 µM; with A498 renal, 1.28 µM; in the assay on UO-31 renal it was 1.28 µM; in the assay with M14 melanoma, 1.65 µM; in the assay with KM12 colon, 2.14 µM. For the same compound, the GI50 in the assay on MDA-MB-435 was 1.68 µM; with U251 CNS, 1.52 µM; in the assay with TK-10 renal, 1.92 µM; in the assay with NCI-H460 lung, 1.8 µM. The TGI in the assay with OVCAR-4 ovarian stood at 2.76 µM; with MOLT-4 leukemia it was 15.5 µM; in the assay on A498 renal, 2.6 µM; in the assay on UO-31 renal, 2.56 µM; with M14 melanoma, 3.29 µM; in the assay on KM12 colon it was 5.44 µM. In addition, the TGI came out at 3.5 µM with MDA-MB-435, 2.99 µM in the assay with U251 CNS, 3.52 µM in the assay with TK-10 renal and 4.31 µM in the assay on NCI-H460 lung.

Turning to `CN1CCN(Cc2ccc3c(NNC(=O)c4ccccc4)nc4cc(F)ccc4n23)CC1`, the GI50 is 0.335 µM in the assay on OVCAR-4 ovarian; 0.291 µM in the assay on MOLT-4 leukemia; 0.658 µM in the assay with A498 renal; 0.0681 µM with UO-31 renal; 0.252 µM in the assay on M14 melanoma; 0.42 µM in the assay on KM12 colon. The GI50 in the assay on MDA-MB-435 is 0.599 µM; in the assay on U251 CNS, 0.373 µM; with TK-10 renal, 0.252 µM; with NCI-H460 lung, 0.195 µM. Further, the TGI in the assay on OVCAR-4 ovarian is 37.1 µM; in the assay with MOLT-4 leukemia it was 20.2 µM; in the assay on A498 renal, 8.81 µM; with UO-31 renal, 3.79 µM; with M14 melanoma, 12.9 µM; with KM12 colon, over 96.4 µM. In addition, the TGI was over 66 µM in the assay with MDA-MB-435, 19 µM with U251 CNS, over 92.5 µM with TK-10 renal and 11 µM in the assay with NCI-H460 lung.

Regarding `C=C(C)C(=O)O[C@@H]1C/C(C)=C\[C@H](OC(C)=O)C[C@](C)(O)/C=C2/OC(=O)C(COC(C)=O)=C21`, the TGI in the assay with MOLT-4 leukemia is 2.32 µM; with A498 renal, over 20.8 µM; in the assay on UO-31 renal it was 3.26 µM; in the assay with KM12 colon, 23.5 µM; with MDA-MB-435, 2.8 µM; in the assay on TK-10 renal, 3.7 µM. Besides, the TGI in the assay on NCI-H460 lung came out at 2.35 µM.

Take `C#COc1cccc(Nc2ncnc3cc(NC(=O)[C@H](C)Cl)ccc23)c1`: the GI50 with MOLT-4 leukemia was 2.42 µM; in the assay on A498 renal, 1.73 µM; with UO-31 renal, 7.94 µM; in the assay on M14 melanoma, 2.27 µM; in the assay with KM12 colon, 2.44 µM; in the assay with MDA-MB-435, 1.4 µM. In addition, the GI50 was 2.84 µM in the assay with U251 CNS, 23.6 µM in the assay on TK-10 renal and 2.18 µM with NCI-H460 lung. Further, the TGI in the assay with MOLT-4 leukemia was over 62.5 µM; with A498 renal, 34.5 µM; with UO-31 renal, over 62.5 µM; with M14 melanoma, over 62.5 µM; in the assay with KM12 colon, over 62.5 µM; in the assay with MDA-MB-435, 4.3 µM. Moreover, the TGI with U251 CNS, with TK-10 renal and in the assay on NCI-H460 lung was over 62.5 µM in each case.

With `CC12CCC3c4cc(Br)c(O)c(Br)c4CCC3C1CCC2O` (stereo unspecified), the TGI in the assay on MOLT-4 leukemia is 42.2 µM; in the assay on A498 renal it was 36.3 µM; in the assay with UO-31 renal, 46.8 µM; with M14 melanoma, over 100 µM; in the assay with KM12 colon it was 26.6 µM; in the assay with MDA-MB-435 it was 18.7 µM. Also, the results for the TGI in the assay with U251 CNS and in the assay on TK-10 renal were 29.6 µM and 43.1 µM, respectively.

As for `COc1cc2c(=O)n(CCN(C)C)c3c4cc5c(cc4ccc3c2cc1OC)OCO5`, the GI50 in the assay with OVCAR-4 ovarian was 0.445 µM; in the assay with MOLT-4 leukemia it was 0.127 µM; in the assay on A498 renal, 0.0417 µM; in the assay on UO-31 renal, 0.119 µM; in the assay with M14 melanoma, 0.166 µM; in the assay with KM12 colon, 0.53 µM. The results for the GI50 in the assay with MDA-MB-435, with U251 CNS and in the assay with NCI-H460 lung were 0.329 µM, 0.153 µM and 0.123 µM, respectively. The TGI turned out to be 5.53 µM in the assay with OVCAR-4 ovarian; 0.648 µM with MOLT-4 leukemia; 0.603 µM with A498 renal; 0.48 µM in the assay on UO-31 renal; 0.723 µM in the assay with M14 melanoma; 4.04 µM with KM12 colon. Besides, the TGI in the assay with MDA-MB-435 amounted to 1.29 µM; with U251 CNS it was 1.92 µM; in the assay on NCI-H460 lung it was 0.592 µM.

`O=c1cc(-c2ccccc2)oc2cc(OC/C(=N/O)c3ccc(F)cc3)ccc12`: the GI50 is over 50 µM in the assay on OVCAR-4 ovarian; over 50 µM in the assay on MOLT-4 leukemia; 14.7 µM in the assay with UO-31 renal; 46.7 µM with M14 melanoma; 11.3 µM with KM12 colon; 13.8 µM in the assay on MDA-MB-435. The GI50 is 22 µM in the assay with U251 CNS, 13.7 µM in the assay on TK-10 renal and 12.9 µM with NCI-H460 lung. Moreover, the TGI was over 50 µM in the assay on OVCAR-4 ovarian; over 50 µM in the assay with MOLT-4 leukemia; over 50 µM with UO-31 renal; over 50 µM in the assay with M14 melanoma; 29.2 µM in the assay on KM12 colon; over 50 µM with MDA-MB-435. Moreover, the TGI is over 50 µM with U251 CNS, 31.8 µM in the assay with TK-10 renal and 44.2 µM in the assay on NCI-H460 lung.

Regarding `CCN1C[C@]2(COC)[C@H](O)C[C@H](OC)[C@]34C1[C@H]([C@H](OC)[C@H]23)[C@]1(OC(C)=O)[C@H]2[C@@H](OC(=O)c3ccccc3)[C@](O)(C[C@H]24)[C@@H](OC)[C@@H]1O`, the TGI with OVCAR-4 ovarian, with A498 renal, in the assay on UO-31 renal, in the assay on M14 melanoma, with KM12 colon and in the assay on MDA-MB-435 was over 100 µM in each case. Further, the TGI with U251 CNS, in the assay with TK-10 renal and in the assay on NCI-H460 lung was over 100 µM each time.

Regarding `COc1cccc(/C(C)=N/NC(=O)CSc2nc3ccccc3c(=O)n2CCc2ccc(S(N)(=O)=O)cc2)c1`, the GI50 in the assay with OVCAR-4 ovarian was 1.85 µM; with MOLT-4 leukemia, 6.5 µM; in the assay with A498 renal it was 8.02 µM; with UO-31 renal it was 2.11 µM; in the assay with M14 melanoma, 2.58 µM; in the assay on KM12 colon, 2.8 µM. Besides, the figures for the GI50 with MDA-MB-435, in the assay on U251 CNS and in the assay on TK-10 renal were 3.18 µM, 1.98 µM and 2.36 µM, respectively. Besides, the TGI in the assay with OVCAR-4 ovarian is 4.28 µM; in the assay with MOLT-4 leukemia, 40.2 µM; in the assay on A498 renal it was 24.8 µM; in the assay on UO-31 renal, 6.48 µM; in the assay on M14 melanoma it was 73 µM; in the assay on KM12 colon, 7.67 µM. The TGI in the assay on MDA-MB-435 was determined as 12.6 µM; in the assay on U251 CNS, 3.67 µM; in the assay with TK-10 renal, 5.42 µM.
